Source: US11512280B2, “Method for culturing spore-forming bacteria, and method for producing useful substance” (priority 2016, dated 2022)

Key:
Format in all cases: cell-based
[1] = test system: Bacillus thuringiensis NBRC 101235 strain; assay: Culture of Bacillus thuringiensis with sporulation-inhibiting substance, 40 hours (Example 3); settings: for Bacterial cell concentration / Spore concentration / Sporulation rate: 40 hours culture
Description: Using a 500 ml Erlenmeyer flask (with baffles), each 100 ml of media listed in Table 1 was prepared and then autoclave sterilization was carried out. Note that glucose was separately sterilized and aseptically mixed in order to avoid Maillard reaction.
(§1) According to the conditions of each test section, the filter-sterilized aqueous solution of each sporulation-inhibiting substance was added aseptically to each medium. According to the conditions of each test section, one loopful of Bacillus thuringiensis NBRC 101235 strain was taken from a colony grown on a nutrient agar medium, inoculated, and then cultured with shaking at 30° C. and 150 rpm for 40 hours.
(§2) Each of the thus obtained culture liquid was diluted 10-fold with sterile water, and then the bacterial cell concentration (vegetative cells and spores) and the sporulation rate (spore concentration/bacterial cell concentration) were measured using an optical microscope and a bacterial cell counter.

[2] = test system: Bacillus subtilis MBI-600 strain; assay: Surfactin production by Bacillus subtilis, HPLC of culture supernatant (Example 4)
Description: Using a 500 ml Erlenmeyer flask (with baffles), each 100 ml of media listed in Table 5 was prepared and then autoclave sterilization was carried out. Note that glucose was separately sterilized and aseptically mixed in order to avoid Maillard reaction.
as §1, with “subtilis MBI-600” for “thuringiensis NBRC 101235”, “rpm.” for “rpm for 40 hours.”
Fifty (50) hours after the start of culture, culture was stopped.
Each of the obtained cultured liquid was centrifuged using a refrigerated centrifuge (TOMY SEIKO Co., Ltd. MX-307) at 10,000 rpm and 20° C. for 30 minutes, thereby collecting a supernatant.
To a solid-phase extraction column (Nihon Waters K.K. Oasis HLB 3 cc (400 mg) LP Extraction Cartridge), 3 ml of 0.1% TFA-containing acetonitrile was added and allowed to pass therethrough, and then 3 ml of 0.1% TFA-containing distilled water was added to pass through the column. Two ml of the thus collected centrifugal supernatant of each culture medium was added to pass through the column, 6 ml of 0.1% TFA-containing distilled water, and then 3 ml of 0.1% TFA-containing acetonitrile/distilled water (20:80, v/v) were allowed to pass through the column in sequence for washing. Next, 3 ml of 0.1% TFA-containing acetonitrile/distilled water (90:10, v/v) was allowed to pass through the column, thereby collecting an eluate. 0.1% TFA-containing acetonitrile/distilled water (90:10, v/v) was added, so that the amount of the collected solution was 4 ml, and then HPLC analysis was conducted under the following conditions.
HPLC: Agilent Technologies, Inc. 1260 Infinity […]
Each medium was compared with the authentic sample in terms of peak area detected at the elution time of 27.6 minutes and that of 28.4 minutes, thereby calculating the surfactin concentration in the culture medium.

[3] = test system: Bacillus subtilis MBI-600 strain; assay: Culture of Bacillus subtilis in Table 5 medium with sporulation-inhibiting substance, 50 hours, cell and spore counts (Example 4); settings: for Bacterial cell concentration: carbon content 18.2 g/L
Description: Using a 500 ml Erlenmeyer flask (with baffles), each 100 ml of media listed in Table 5 was prepared and then autoclave sterilization was carried out. Note that glucose was separately sterilized and aseptically mixed in order to avoid Maillard reaction. According to the conditions of each test section, the filter-sterilized aqueous solution of each sporulation-inhibiting substance was added aseptically to each medium. According to the conditions of each test section, one loopful of Bacillus subtilis MBI-600 strain was taken from a colony grown on a nutrient agar medium, inoculated, and then cultured with shaking at 30° C. and 150 rpm. Fifty (50) hours after the start of culture, culture was stopped.

[4] = test system: Bacillus subtilis MBI-600; assay: Culture of Bacillus subtilis with sporulation-inhibiting substance, 64 hours (Example 1)
Description: Using a 500 ml Erlenmeyer flask (with baffles), each 100 ml of media listed in Table 1 was prepared and then autoclave sterilization was carried out. Glucose was separately sterilized and aseptically mixed in order to avoid Maillard reaction.
as §1, with “One” for “According to the conditions of each test section, one”, “subtilis MBI-600” for “thuringiensis NBRC 101235 strain”, “64” for “40”
as §2

[5] = 0.1 ppm added, 64 hours culture
[6] = 1.0 ppm added, 64 hours culture

## CC[C@H]1OC(=O)[C@H](C)[C@@H](O[C@H]2C[C@@](C)(OC)[C@@H](O)[C@H](C)O2)[C@H](C)[C@@H](O[C@@H]2O[C@H](C)C[C@H](N(C)C)[C@H]2O)[C@](C)(O)C[C@@H](C)C(=O)[C@H](C)[C@@H](O)[C@]1(C)O [Erythromycin]
[1]; 0.05 ppm
  bacterial cell concentration and spore concentration: tended to increase
  Bacterial cell concentration: 1.5e+09 mL⁻¹
  Spore concentration: 1.1e+09 mL⁻¹
  Sporulation rate: 73%
[1]; 0.1 ppm
  effect of inhibiting sporulation: confirmed
  Bacterial cell concentration: 2e+09 mL⁻¹
  Spore concentration: 3e+08 mL⁻¹
  Sporulation rate: 16%
[2]; 0.1 ppm and 0.2 ppm
  Surfactin concentration: tended to increase
[2]; 0.1 ppm, 50 hours culture, in the culture medium
  Surfactin concentration: 58.5 ppm
[2]; 0.2 ppm, 50 hours culture, in the culture medium
  Surfactin concentration: 75.7 ppm
[3]; 0.1 ppm and 0.2 ppm
  Spore concentration: tended to increase
[3]; 0.1 ppm, 50 hours culture
  Spore concentration: 8e+09 mL⁻¹
  Sporulation rate: 99%
  Bacterial cell concentration: 8.1e+09 mL⁻¹
[3]; 0.2 ppm, 50 hours culture
  Spore concentration: 6.9e+09 mL⁻¹
  Sporulation rate: 100%
  Bacterial cell concentration: 6.9e+09 mL⁻¹
[4]; 0.1 ppm
  effect of inhibiting sporulation: not observed
[4]; [5]
  Spore concentration: 2.8e+09 mL⁻¹
  Sporulation rate: 80%
[4]; 0.1 ppm added, 64 hours culture, carbon content 9.1 g/L
  Bacterial cell concentration: 3.5e+09 mL⁻¹
[4]; 1 ppm
  effect of inhibiting sporulation: observed
[4]; [6]
  Bacterial cell concentration: 6.2e+09 mL⁻¹
  Sporulation rate: 0%
[4]; trend over tested concentrations
  bacterial cell concentrations as the concentration of the substance increased: tended to increase
